Results: US12606541B2, “PPARg modulators and methods of use” (Eisai R&D Management Co., Ltd., priority 2020, dated 2026)
pIC50: −log10 of the molar value. Read-outs that look alike come from different tables or passages of the source.

How the values were obtained:
[1] = molecular target: T1, His6-TEV-PPARγ-(234-505) (Homo sapiens, UniProt P37231); experiment: TR-FRET Assay to Measure Co-R Peptide Recruitment to PPARγ; type: biochemical; conditions: Co-R peptide (SMRT-ID2) recruitment; top final concentration 20 μM; read-out: TR-FRET i-Ag; AC50
T1 construct: The His6-TEV-PPARγ-(234-505) protein for assay was expressed and purified; TEV cleavage site (N); made in house
T1 sequence (P37231 234-505): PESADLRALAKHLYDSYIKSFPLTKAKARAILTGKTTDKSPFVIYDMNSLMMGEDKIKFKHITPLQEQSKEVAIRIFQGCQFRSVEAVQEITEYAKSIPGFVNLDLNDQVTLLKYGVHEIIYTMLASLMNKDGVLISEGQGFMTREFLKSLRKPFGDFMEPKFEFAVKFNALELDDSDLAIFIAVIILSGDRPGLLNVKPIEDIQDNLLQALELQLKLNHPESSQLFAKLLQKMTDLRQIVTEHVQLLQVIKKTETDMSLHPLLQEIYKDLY
How it was run: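 His-tagged PPARγ (or controls) was preincubated with compound for 20 minutes at room temperature, then 5 nM anti-His terbium antibody and 200 nM FITC-labeled SMRT-ID2 corepressor peptide (final) were added for a further hour. TR-FRET signal was normalized to percent response using 500 nM T0070907 and DMSO controls.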

[2] = tested on: UM-UC-9 engineered cells; experiment: Cell proliferation / short-term viability assay, CellTiter-Glo 144 h; type: cell-based, human; conditions: read-out: CTGlo 144 h UMUC9.5, G150
How it was run: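 UM-UC-9 engineered assay-ready cells seeded at 500 cells/well in high-glucose DMEM/10% FBS, treated from dose-response plates, grown at 37° C, 5% CO2. CellTiter-Glo 2.0 luminescence read on day 7, with a day-0 pretreatment plate as T0 reference and DMSO wells as negative control.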

SMILES | AC50 [1] [nM] | pIC50 [2] | pIC50 ([2]; Homo sapiens, UM-UC-9, 144 h)
COc1cc(-c2cc(C(=O)N3CCC(C(=O)NC4CCC(O)(C(F)(F)F)CC4)CC34CC4)n[nH]2)ncn1 (single isomer, unassigned) [Example 338-A] | 9.3 | 7.79 | 
COc1cc(-c2cc(C(=O)N3CCC(C(=O)NC4CCC(O)(C(F)(F)F)CC4)CC34CC4)n[nH]2)ncn1 (single isomer, unassigned) [Example 338-B] | 723 | 5.88 | 
Cc1cc(-c2cc(C(=O)N3CCC(C(=O)NC4CCC(O)(C(F)(F)F)CC4)CC34CC4)n[nH]2)ncn1 (single isomer, unassigned) [Example 339-A] | 476 | 5.42 | 
Cc1cc(-c2cc(C(=O)N3CCC(C(=O)NC4CCC(O)(C(F)(F)F)CC4)CC34CC4)n[nH]2)ncn1 (single isomer, unassigned) [Example 339-B] | 6.9 | 7.71 | 
COc1cc(-c2cc(C(=O)N3CCC(C(=O)NC4CCC(OCC(C)OC)(C(F)(F)F)CC4)CC34CC4)n[nH]2)c(F)cn1 (single isomer, unassigned) [Example 340-A] | 6.5 | 8.36 | 
COc1cc(-c2cc(C(=O)N3CCC(C(=O)NC4CCC(OCC(C)OC)(C(F)(F)F)CC4)CC34CC4)n[nH]2)c(F)cn1 (single isomer, unassigned) [Example 340-B] | 19 | 7.97 | 
COc1cc(-c2cc(C(=O)N3CCC(C(=O)NCC4CCc5[nH]ncc5C4)CC34CC4)n[nH]2)c(F)cn1 (single isomer, unassigned) [Example 341-A] | 6.1 | 8.18 | 
COc1cc(-c2cc(C(=O)N3CCC(C(=O)NCC4CCc5[nH]ncc5C4)CC34CC4)n[nH]2)c(F)cn1 (single isomer, unassigned) [Example 341-B] | 8.1 | 7.91 | 
COc1cc(-c2cc(C(=O)N3CCC(C(=O)NCC4CCn5cncc5C4)CC34CC4)n[nH]2)c(F)cn1 (single isomer, unassigned) [Example 342-A] | 50.8 | 5.92 | 
COc1cc(-c2cc(C(=O)N3CCC(C(=O)NCC4CCn5cncc5C4)CC34CC4)n[nH]2)c(F)cn1 (single isomer, unassigned) [Example 342-B] | 42.8 | 6.17 | 
COc1cc(-c2cc(C(=O)N3CCC(C(=O)NCC4CCn5c(C)nnc5C4)CC34CC4)n[nH]2)c(F)cn1 (single isomer, unassigned) [Example 346-A] | 504 | 5.55 | 
COc1cc(-c2cc(C(=O)N3CCC(C(=O)NCC4CCn5c(C)nnc5C4)CC34CC4)n[nH]2)c(F)cn1 (single isomer, unassigned) [Example 346-B] | 1120 | 5.62 | 
COc1cc(-c2cc(C(=O)N3CCC(NC(=O)C4CCC(O)(C(F)(F)F)CC4)CC34CC4)n[nH]2)c(F)cn1 (single isomer, unassigned) [Example 347-A] | 81.6 | 6.40 | 
COc1cc(-c2cc(C(=O)N3CCC(NC(=O)C4CCC(O)(C(F)(F)F)CC4)CC34CC4)n[nH]2)c(F)cn1 (single isomer, unassigned) [Example 347-B] | 198 | 6.22 | 
COc1cc(-c2cc(C(=O)N3CCC(NC(=O)C4CCC(O)(C(F)(F)F)CC4)CC34CC4)n[nH]2)c(F)cn1 (single isomer, unassigned) [Example 347-C] | 5080 | < 5.00 | 
COc1cc(-c2cc(C(=O)N3CCC(NC(=O)C4CCC(O)(C(F)(F)F)CC4)CC34CC4)n[nH]2)c(F)cn1 (single isomer, unassigned) [Example 347-D] | ≥ 20000 | < 5.00 | 
COc1cc(-c2cc(C(=O)N3CCC(C(=O)NC4CC(N5CCC(F)(F)C5)C4(C)C)CC34CC4)n[nH]2)c(F)cn1 (single isomer, unassigned) [Example 355-A] | 10.4 | 8.46 | 
COc1cc(-c2cc(C(=O)N3CCC(C(=O)NC4CC(N5CCC(F)(F)C5)C4(C)C)CC34CC4)n[nH]2)c(F)cn1 (single isomer, unassigned) [Example 355-B] | 9.4 | 8.48 | 
COc1cc(-c2cc(C(=O)N3CCC(C(=O)NC4CCC(O)(C(F)(F)F)CC4)CC3C(F)(F)F)n[nH]2)c(F)cn1 (single isomer, unassigned) [Example 367-A] | 56.7 | 6.79 | 
COc1cc(-c2cc(C(=O)N3CCC(C(=O)NC4CCC(O)(C(F)(F)F)CC4)CC3C(F)(F)F)n[nH]2)c(F)cn1 (single isomer, unassigned) [Example 367-B] | 12.7 | 8.17 | 

SMILES | AC50 [1] [nM] | pIC50 [2] | pIC50 ([2]; Homo sapiens, UM-UC-9, 144 h)
COc1cc(-c2cc(C(=O)N3CC[C@H](C(=O)NC4CCC(O)(C(C)(F)F)CC4)CC34CC4)n[nH]2)c(F)cn1 (single isomer, unassigned) [Example 375-A] | 3.4 | 8.89 | 
COc1cc(-c2cc(C(=O)N3CC[C@H](C(=O)NC4CCC5CCCN5C4)CC34CC4)n[nH]2)c(F)cn1 (single isomer, unassigned) [Example 376-A] | 897 | 5.76 | 
COc1cc(-c2cc(C(=O)N3CC[C@H](C(=O)NC4CCC5CCCN5C4)CC34CC4)n[nH]2)c(F)cn1 (single isomer, unassigned) [Example 376-B] | 1600 | 5.41 | 
COc1cc(-c2cc(C(=O)N3CC[C@H](C(=O)NC4CCC5CCCN5C4)CC34CC4)n[nH]2)c(F)cn1 (single isomer, unassigned) [Example 376-C] | 19.2 | 7.63 | 
COc1cc(-c2cc(C(=O)N3CC[C@H](C(=O)NC4CCC5CCCN5C4)CC34CC4)n[nH]2)c(F)cn1 (single isomer, unassigned) [Example 376-D] | 129 | 7.15 | 
COc1cc(-c2cc(C(=O)N3CC[C@H](C(=O)NC(C)c4nnc(C5CC5)o4)CC34CC4)n[nH]2)c(F)cn1 (single isomer, unassigned) [Example 395-B] | 671 |  | 6.23
COc1cc(-c2cc(C(=O)N3CC[C@H](C(=O)NC4CCC(N)(C(F)(F)F)CC4)CC34CC4)n[nH]2)c(F)cn1 (single isomer, unassigned) [Example 399-A] | 298 |  | 6.75
COc1cc(-c2cc(C(=O)N3CCC(C(=O)NC4CCC(O)(C(F)(F)F)CC4)CC3(C)C)n[nH]2)c(F)cn1 (single isomer, unassigned) [Example 407-A] | 16 | 7.85 | 
COc1cc(-c2cc(C(=O)N3CCC(C(=O)NC4CCC(O)(C(F)(F)F)CC4)CC3(C)C)n[nH]2)c(F)cn1 (single isomer, unassigned) [Example 407-B] | 1690 | 5.87 | 
COc1cc(-c2cc(C(=O)N3CC[C@H](C(=O)NC4CCC(CO)(C(F)(F)F)CC4)CC34CC4)n[nH]2)c(F)cn1 (single isomer, unassigned) [Example 408-A] | 4.5 | 8.41 | 
COc1cc(-c2cc(C(=O)N3CC[C@H](C(=O)NC(C)C45CCC(O)(CC4)CC5)CC34CC4)n[nH]2)c(F)cn1 (single isomer, unassigned) [Example 411-A] | 160 | 6.28 | 
COc1cc(-c2cc(C(=O)N3CC[C@H](C(=O)NC(C)c4cn5c(n4)COCC5)CC34CC4)n[nH]2)c(F)cn1 (single isomer, unassigned) [Example 415-A] | 88.1 | 6.52 | 
COc1cc(-c2cc(C(=O)N3CC[C@H](C(=O)NC(C)c4cn5c(n4)COCC5)CC34CC4)n[nH]2)c(F)cn1 (single isomer, unassigned) [Example 415-B] | 283 | 6.06 | 
COc1cc(-c2cc(C(=O)N3CC[C@H](C(=O)NC4CCC(N5CCOCC5)CC4)CC34CC4)n[nH]2)c(F)cn1 (single isomer, unassigned) [Example 418-A] | 67.4 |  | 6.82
COc1cc(-c2cc(C(=O)N3CC[C@H](C(=O)NC4CCC(C)(C)N(C)C4)CC34CC4)n[nH]2)c(F)cn1 (single isomer, unassigned) [Example 424-A] | 1030 | 5.53 | 
COc1cc(-c2cc(C(=O)N3CC[C@H](C(=O)NC4CCC(C)(C)N(C)C4)CC34CC4)n[nH]2)c(F)cn1 (single isomer, unassigned) [Example 424-B] | 209 | 6.03 | 
COc1cc(-c2cc(C(=O)N3CC[C@H](C(=O)NC4CCN(CCF)C(C)(C)C4)CC34CC4)n[nH]2)c(F)cn1 (single isomer, unassigned) [Example 425-A] | 2510 | < 5.00 | 
COc1cc(-c2cc(C(=O)N3CC[C@H](C(=O)NC4CCN(CCF)C(C)(C)C4)CC34CC4)n[nH]2)c(F)cn1 (single isomer, unassigned) [Example 425-B] | 917 | < 5.00 | 
COc1cc(-c2cc(C(=O)N3CC[C@H](C(=O)NC4CN(C5CCOC5)C4)CC34CC4)n[nH]2)c(F)cn1 (single isomer, unassigned) [Example 433-A] | 126 | 6.46 | 
COc1cc(-c2cc(C(=O)N3CC[C@H](C(=O)NC4CN(C5CCOC5)C4)CC34CC4)n[nH]2)c(F)cn1 (single isomer, unassigned) [Example 433-B] | 61.1 | 6.60 | 
